Activity calls are given as the source filed them. The rule behind the calls is not given here.

The data set concerns rodent carcinogenicity bioassays, tumor incidence. The data set is described as follows: CCRIS carcinogenicity studies. The method, boiled down: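 Archive of carcinogenicity, mutagenicity, tumor promotion and tumor inhibition results drawn from journals, NCI reports and other sources, expert-reviewed; covers 1985-2011 and is no longer updated.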

Turning to `c1ccc2cc3c(ccc4ccccc43)cc2c1`, the carcinogen call by setting is: (Species: MOUSE, Route: DERMAL, Tumor Site: Type of Lesion: INTEGUMENTARY SYSTEM (SKIN)) “active; positive”; (Species: MOUSE, Route: IMPLANT, Tumor Site: Type of Lesion: URINARY BLADDER) “active; positive”; (Species: MOUSE, Route: ORAL, Tumor Site: Type of Lesion: LIVER, LUNG) “active; positive”; (Species: MOUSE, Route: SUBCUTANEOUS, Tumor Site: Type of Lesion: INJECTION SITE) “active; positive”; (Species: MOUSE, Strain/Sex: B6C3F1/MALE, Route: INTRAPERITONEAL, Dose: 0, 1600 NMOL IN 35 µL DMSO TOTAL DOSE AT 1 D (1/7 TOTAL DOSE), 8 D (2/7 TOTAL DOSE), AND 15 D (4/7 TOTAL DOSE) OF AGE (S, Tumor Site: Type of Lesion: LIVER: ADENOMA, CARCINOMA) “active; positive”; (Species: MOUSE, Strain/Sex: SWISS/MALE,FEMALE, Route: INTRAPERITONEAL, Dose: 0, 2800 NMOL TOTAL DOSE, D 1, 8, AND 15 OF LIFE, Dose: 0, 2800 NMOL TOTAL DOSE, D 1, 8, AND 15 OF LIFE, Tumor Site: Type of Lesion: LUNG: ADENOMA, MALIGNANT LYMPHOMA) “active; positive”.

Regarding `COc1cc(OC)nc(NC(=O)NS(=O)(=O)c2cc(NC=O)ccc2C(=O)N(C)C)n1`, the carcinogen call is “inactive; negative” (Species: Mouse, Strain/Sex: Crl:CD-1(ICR)BR/Female (51/Group), Route: Oral, Dose: 0, 40, 800, 8000 ppm of 94.6% foramsulfuron in diet for 80 wk, study duration 80 wk, Dose: 0, 40, 800, 8000 ppm of 94.6% foramsulfuron in diet for 80 wk, study duration 80 wk); “inactive; negative” (Species: Mouse, Strain/Sex: Crl:CD-1(ICR)BR/Male (51/Group), Route: Oral, Dose: 0, 40, 800, 8000 ppm of 94.6% foramsulfuron in diet for 80 wk, study duration 80 wk, Dose: 0, 40, 800, 8000 ppm of 94.6% foramsulfuron in diet for 80 wk, study duration 80 wk); “inactive; negative” (Species: Rat, Strain/Sex: Sprague Dawley CRL:CD (IGS) BR/Female (50/Group), Route: Oral, Dose: 0, 100, 600, 6000, 20,000 ppm of 94.6% foramsulfuron in diet for 104 wk, study duration 104 wk, Dose: 0, 100, 600, 6000, 20,000 ppm of 94.6% foramsulfuron in diet for 104 wk, study duration 104 wk); “inactive; negative” (Species: Rat, Strain/Sex: Sprague Dawley CRL:CD (IGS) BR/Male (50/Group), Route: Oral, Dose: 0, 100, 600, 6000, 20,000 ppm of 94.6% foramsulfuron in diet for 104 wk, study duration 104 wk, Dose: 0, 100, 600, 6000, 20,000 ppm of 94.6% foramsulfuron in diet for 104 wk, study duration 104 wk).

Regarding `c1ccc2occc2c1`, the carcinogen call is, setting by setting: (Species: MOUSE, Strain/Sex: B6C3F1/FEMALE, Route: GAVAGE, Dose: 0, 120, 240 MG/KG IN CORN OIL 5 D/WK FOR 103 WK (STUDY DURATION: 104 WK), Dose: 0, 120, 240 MG/KG IN CORN OIL 5 D/WK FOR 103 WK (STUDY DURATION: 104 WK), Tumor Site: Type of Lesion: LUNG: ALVEOLAR/BRONCHIOLAR ADENOMA, ALVEOLAR/BRONCHIOLAR CARCINOMA, LIVER: HEPATOCELLULAR ADENOMA, HEPATOCELLULAR ADENOM) “active; positive”; (Species: MOUSE, Strain/Sex: B6C3F1/MALE, Route: GAVAGE, Dose: 0, 60, 120 MG/KG IN CORN OIL 5 D/WK FOR 103 WK (STUDY DURATION: 104 WK), Dose: 0, 60, 120 MG/KG IN CORN OIL 5 D/WK FOR 103 WK (STUDY DURATION: 104 WK), Tumor Site: Type of Lesion: LUNG: ALVEOLAR/BRONCHIOLAR ADENOMA, ALVEOLAR/BRONCHIOLAR ADENOMA OR CARCINOMA, LIVER: HEPATOCELLULAR ADENOMA, HEPATOCELL) “active; positive”; (Species: RAT, Strain/Sex: F344/FEMALE, Route: GAVAGE, Dose: 0, 60, 120 MG/KG IN CORN OIL 5 D/WK FOR 103 WK (STUDY DURATION: 104 WK), Dose: 0, 60, 120 MG/KG IN CORN OIL 5 D/WK FOR 103 WK (STUDY DURATION: 104 WK), Tumor Site: Type of Lesion: KIDNEY: TUBULAR CELL ADENOCARCINOMA) “active; positive”; (Species: RAT, Strain/Sex: F344/MALE, Route: GAVAGE, Dose: 0, 30, 60 MG/KG IN CORN OIL 5 D/WK FOR 103 WK (STUDY DURATION: 104 WK), Dose: 0, 30, 60 MG/KG IN CORN OIL 5 D/WK FOR 103 WK (STUDY DURATION: 104 WK)) “inactive; negative”.

Take `CCCCC(CC)COS(=O)(=O)O` (configuration not stated): the carcinogen call was “active; positive” (Species: MOUSE, Strain/Sex: B6C3F1/FEMALE, Route: ORAL, Dose: 0, 10000, 20000 PPM IN DIET FOR 102-104 WK (STUDY DURATION: 102-104 WK), Dose: 0, 10000, 20000 PPM IN DIET FOR 102-104 WK (STUDY DURATION: 102-104 WK), Tumor Site: Type of Lesion: LIVER: CARCINOMA, CARCINOMA OR ADENOMA); “inactive; negative” (Species: MOUSE, Strain/Sex: B6C3F1/MALE, Route: ORAL, Dose: 0, 5000, 10000 PPM IN DIET FOR 102-104 WK (STUDY DURATION: 102-104 WK), Dose: 0, 5000, 10000 PPM IN DIET FOR 102-104 WK (STUDY DURATION: 102-104 WK)); “inactive; negative” (Species: RAT, Strain/Sex: F344/FEMALE, Route: ORAL, Dose: 0, 10000, 20000 PPM IN DIET FOR 102-104 WK (STUDY DURATION: 102-104 WK), Dose: 0, 10000, 20000 PPM IN DIET FOR 102-104 WK (STUDY DURATION: 102-104 WK)); “inactive; negative” (Species: RAT, Strain/Sex: F344/MALE, Route: ORAL, Dose: 0, 10000, 20000 PPM IN DIET FOR 102-104 WK (STUDY DURATION: 102-104 WK), Dose: 0, 10000, 20000 PPM IN DIET FOR 102-104 WK (STUDY DURATION: 102-104 WK)).

As to `CC(C)([CH2][Sn]([CH2]C(C)(C)c1ccccc1)([CH2]C(C)(C)c1ccccc1)[O][Sn]([CH2]C(C)(C)c1ccccc1)([CH2]C(C)(C)c1ccccc1)[CH2]C(C)(C)c1ccccc1)c1ccccc1`, the carcinogen call (Species: Mouse, Strain/Sex: Unspecified strain/Female (96/Control group; 48/Experimental group), Route: Oral, Dose: 0, 50, 100, 300, 600 ppm of 97% fenbutatin oxide in the diet for 18 mo, study duration 18 mo, Dose: 0, 50, 100, 300, 600 ppm of 97% fenbutatin oxide in the diet for 18 mo, study duration 18 mo) was “inactive; negative”; the carcinogen call (Species: Mouse, Strain/Sex: Unspecified strain/Male (96/Control group; 48/Experimental group), Route: Oral, Dose: 0, 50, 100, 300, 600 ppm of 97% fenbutatin oxide in the diet for 18 mo, study duration 18 mo, Dose: 0, 50, 100, 300, 600 ppm of 97% fenbutatin oxide in the diet for 18 mo, study duration 18 mo) was “inactive; negative”; the carcinogen call (Species: Rat, Strain/Sex: Carworth Farm E/Female (96/Control group; 48/Experimental group), Route: Oral, Dose: 0, 50, 100, 300, 600 ppm of 97% fenbutatin oxide in the diet for 2 yr, study duration 2 yr, Dose: 0, 50, 100, 300, 600 ppm of 97% fenbutatin oxide in the diet for 2 yr, study duration 2 yr) is “inactive; negative”; the carcinogen call (Species: Rat, Strain/Sex: Carworth Farm E/Male (96/Control group; 48/Experimental group), Route: Oral, Dose: 0, 50, 100, 300, 600 ppm of 97% fenbutatin oxide in the diet for 2 yr, study duration 2 yr, Dose: 0, 50, 100, 300, 600 ppm of 97% fenbutatin oxide in the diet for 2 yr, study duration 2 yr) is “inactive; negative”.

In the case of `O=[N+]([O-])c1ccc(-c2cscn2)o1`, for the setting “Species: RAT, Strain/Sex: SPRAGUE-DAWLEY/FEMALE, Route: ORAL, Dose: 0, 1540 PPM IN DIET FOR 46 WK (TOTAL DOSE: 42 MMOL/RAT) (STUDY DURATION: 68 WK), Tumor Site: Type of Lesion: MAMMARY GLAND: FIBROADENOMA, FORESTOMACH: SQUAMOUS CELL CARCINOMA”, the carcinogen call is “active; positive”.

In the case of `Nc1ccc2cc3ccc(N)cc3nc2c1`, the carcinogen call reads like this: (Species: MOUSE, Strain/Sex: B6C3F1/FEMALE, Route: ORAL, Dose: 0, 200, 400 PPM IN DIET FOR 104 WK (STUDY DURATION: 104 WK), Dose: 0, 200, 400 PPM IN DIET FOR 104 WK (STUDY DURATION: 104 WK), Tumor Site: Type of Lesion: LIVER: HEPATOCELLULAR CARCINOMA) “equivocal”; (Species: MOUSE, Strain/Sex: B6C3F1/MALE, Route: ORAL, Dose: 0, 200, 400 PPM IN DIET FOR 104 WK (STUDY DURATION: 104 WK), Dose: 0, 200, 400 PPM IN DIET FOR 104 WK (STUDY DURATION: 104 WK), Tumor Site: Type of Lesion: LIVER: HEPATOCELLULAR CARCINOMA) “equivocal”; (Species: RAT, Strain/Sex: F344/FEMALE, Route: ORAL, Dose: 0, 300, 600 PPM IN DIET, Dose: 0, 300, 600 PPM IN DIET) “inactive; negative”; (Species: RAT, Strain/Sex: F344/MALE, Route: ORAL, Dose: 0, 300, 600 PPM IN DIET FOR 109 WK (STUDY DURATION: 109 WK), Dose: 0, 300, 600 PPM IN DIET FOR 109 WK (STUDY DURATION: 109 WK), Tumor Site: Type of Lesion: INTESTINE: LEIOMYOSARCOMA OR ADENOCARCINOMA OR SARCOMA) “equivocal”.

The record behind these values is PubChem BioAssay AID1259411 (Chemical Carcinogenesis Research Information System (CCRIS), 2018).
